Consider 3 compounds from PMC5187916, “Discovery of a New Class of Cathepsin K Inhibitors in Rhizoma Drynariae as Potential Candidates for the Treatment of Osteoporosis” (International Journal of Molecular Sciences, 2016).

Experiment [1] has as its target T1, Cathepsin K (Homo sapiens, UniProt P43235).
T1 construct: gene CTSK
T1 sequence (P43235 115-329): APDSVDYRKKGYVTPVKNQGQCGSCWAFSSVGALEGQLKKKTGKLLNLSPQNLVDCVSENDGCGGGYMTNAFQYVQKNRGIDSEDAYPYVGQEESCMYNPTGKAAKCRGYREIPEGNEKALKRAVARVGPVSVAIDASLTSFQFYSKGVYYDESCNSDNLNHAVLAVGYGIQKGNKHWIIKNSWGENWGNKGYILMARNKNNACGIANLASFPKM
Kind of experiment: fluorescence enzyme assay with recombinant human Ctsk, LR-AFC substrate (kit positive control). The format is biochemical.

In experiment [2] the target is T1, Cathepsin K. Kind of experiment: fluorescence enzyme assay with recombinant human Ctsk, LR-AFC substrate. The format is biochemical.

For FF-FMK, in experiment [1], the concentration for half-maximal inhibition (IC50) – broadly, the concentration at which inhibition is half-maximal – is 0.047 µM.
Turning to `C=C(C)C(CC=C(C)C)Cc1c(O)cc2c(c1O)C(=O)CC(c1ccc(O)cc1O)O2` (stereo not drawn) [KF, Kushennol F], in experiment [2], the half-maximal inhibitory concentration (IC50) was 8.79 µM.
As for `C=C(C)[C@H](CC=C(C)C)Cc1c(O)cc(O)c2c1O[C@H](c1ccc(O)cc1O)CC2=O` [SG, Sophoraflavanone G], in experiment [2], the IC50 worked out at 27.2 µM.
